The record followed here is PubChem BioAssay (NCI).

What all share (assay): inhibition of tumour cell growth, NCI panel, 48 h
The test system of assay [1] is COLO 205 colon.
Assay [2] has as its system NCI-H23 lung.
The subject of assay [3] is U251 CNS.
Assay [4] relates to TK-10 renal.
For assay [5], the system named is IGROV1 ovarian.
Assay [6] concerns SNB-19 CNS.
Assay [7] deals with OVCAR-8 ovarian.
The subject of assay [8] is UO-31 renal.
Assay [9] has as its system M14 melanoma.
Assay [10] relates to OVCAR-4 ovarian.

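These data come from cells grown in 96-well plates and exposed to compound for 48 hours at five concentrations. The concentration for 50% growth inhibition is given as GI50. Definition used: TGI = concentration required for complete inhibition of growth.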

Consider `CC[C@@]1(OC(=O)CN(C)C)C(=O)OCc2c1cc1n(c2=O)Cc2cc3c(N)cccc3nc2-1`, for which the GI50 was 0.656 µM in assay [1]; 0.0277 µM in [2]; 0.0217 µM in [3]; 1.68 µM in assay [4]; 0.0609 µM in [5]; 0.0252 µM in assay [6]. Further, the GI50 in [7] is 0.0272 µM; in assay [8] it was 0.0166 µM; in assay [9], 0.0178 µM; in assay [10], 0.625 µM. For the same compound, the TGI in assay [1] was 6.9 µM; in assay [2], 0.684 µM; in assay [3] it was 0.249 µM; in [4] it was greater than 100 µM; in assay [5], 0.421 µM; in [6], greater than 100 µM. The TGI was 0.488 µM in assay [7], 0.057 µM in assay [8], 0.128 µM in assay [9] and 14.6 µM in [10].
On to `COc1ccc(C(=O)O[C@H]2CC[C@@]3(C)[C@@H]4CC[C@H]5[C@]6(O)C[C@H](O)[C@@]7(O)[C@@H](CN8C[C@@H](C)CC[C@H]8[C@@]7(C)O)[C@]6(O)C[C@@]53OC24O)cc1OC`, for which the TGI in assay [1], in assay [2], in assay [3], in assay [4], in [5] and in assay [6] was greater than 100 µM in each case. Also, the TGI in [7], in assay [8], in [9] and in assay [10] was greater than 100 µM each time.
On to `Nc1c(OCC(=O)O)ccc2cc(S(=O)(=O)O)ccc12`, for which the TGI in assay [1], in assay [2], in [3], in [4], in [5] and in [6] was greater than 100 µM throughout. Besides, the TGI in assay [7], in assay [8], in [9] and in [10] was greater than 100 µM throughout.
On to `COc1ccc(NC(=S)NNC(=O)c2nsc3ccccc23)cc1`, for which the TGI in [1], in assay [2], in assay [3], in assay [4], in [5] and in [6] was greater than 100 µM throughout. For the same compound, the TGI in assay [7] was greater than 100 µM; in assay [8] it was 69.1 µM; in [9], 36.7 µM; in assay [10], greater than 100 µM.
Turning to `C[C@]12Cc3cnc(-c4ccccc4)nc3C[C@@H]1CC[C@@H]1[C@@H]2CC[C@@]2(C)[C@H]1CC[C@]2(C)O`, the TGI is 43.2 µM in assay [1]; 47.3 µM in assay [2]; 41.4 µM in assay [3]; 39.1 µM in assay [4]; 63.3 µM in assay [5]; 44.3 µM in [6]. Besides, the TGI in assay [7] is 40.4 µM; in [8], 7.06 µM; in [9] it was 32.5 µM; in assay [10] it was 66.7 µM.
As to `CCC1C(C#N)=C(O)NC(O)=C1C#N`, the TGI in assay [1], in assay [2], in assay [3], in assay [4], in assay [5] and in [6] was greater than 100 µM throughout. The TGI in assay [7], in [8], in [9] and in assay [10] was greater than 100 µM in each case.
With `NC1C=NNC1=O` (centres undefined), the TGI in assay [1], in assay [2], in assay [3], in assay [4], in assay [5] and in assay [6] was greater than 100 µM throughout. Moreover, the TGI in [7], in assay [8], in [9] and in [10] was greater than 100 µM in each case.
`O=C1CCCC/C1=C1/SC(=Nc2ccccc2)C(=Nc2ccccc2)N1c1ccccc1`: the TGI in assay [1], in [2], in [3], in [5], in [6] and in assay [7] was greater than 100 µM each time. In addition, the TGI in assay [8] and in assay [9] was greater than 100 µM each time.
Consider `COc1ccc(C(=O)NC2=C(Cl)C(=O)c3ccccc3C2=O)cc1`, for which the TGI came out at 3.74 µM in assay [1]; 6.05 µM in [2]; 8.38 µM in assay [3]; 7.7 µM in assay [4]; 12.9 µM in assay [5]; 17.4 µM in assay [6]. In addition, the TGI in assay [7] came to 14.4 µM; in assay [8], 8.75 µM; in assay [9], 6.95 µM; in [10], 7.72 µM.
For the compound `Clc1cc2ccccc2c2ccccc12`, the TGI in assay [1], in assay [2], in assay [3], in [4], in assay [5] and in assay [6] was greater than 100 µM each time. Moreover, the TGI in [7], in assay [8], in assay [9] and in [10] was greater than 100 µM each time.
For `O=C(O)C(O)(c1ccc(-c2ccccc2)cc1)c1ccc(-c2ccccc2)cc1`, the TGI in [2] was 36.2 µM; in assay [3], 32.7 µM; in assay [4], greater than 100 µM; in [5], 57.3 µM; in assay [6], greater than 100 µM; in assay [7], greater than 100 µM. The TGI in assay [8], in [9] and in assay [10] was greater than 100 µM each time.
Regarding `CCOC(=O)c1nc2ccccc2n(CC)c1=O`, the TGI in [1], in assay [2], in assay [3], in assay [4], in assay [5] and in [6] was greater than 100 µM throughout. Also, the TGI in assay [7], in assay [8], in assay [9] and in assay [10] was greater than 100 µM throughout.
For the compound `Clc1ccc(C2CC(c3cccc(Nc4ccncc4)c3)=NN2c2ccc(Cl)cc2)cc1` (centres undefined), the GI50 in [1] is 2.09 µM; in assay [2], 1.83 µM; in [4], 1.87 µM; in [5], 1.65 µM; in assay [8], 1.42 µM; in assay [10], 1.66 µM. Besides, the TGI in assay [1] stood at 4.75 µM; in assay [2] it was 3.49 µM; in [4] it was 3.5 µM; in [5] it was 3.18 µM; in assay [8], 2.74 µM; in [10] it was 3.08 µM.
